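Exposure lasted 48 hours, with cells grown in 96-well plates and compounds tested at five concentrations. GI50 is the concentration that inhibits growth by half.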 The source made the active and inactive calls. Cut-off read from the data, not from the text of the source: active = GI50 up to about 1.1 µM and inactive = higher.
What was measured:
Assay in all cases: growth of human tumour cells (NCI), 48 h
ACHN = test system: ACHN
KM12 = test system: KM12
COLO 205 = test system: COLO 205
OVCAR-3 = test system: OVCAR-3
SW-620 = test system: SW-620
SF-268 = test system: SF-268
SR = test system: SR
MDA-MB-231 = test system: MDA-MB-231
SK-OV-3 = test system: SK-OV-3
OVCAR-8 = test system: OVCAR-8
SNB-19 = test system: SNB-19
786-0 = test system: 786-0
NCI/ADR-RES = test system: NCI/ADR-RES
NCI-H23 = test system: NCI-H23
OVCAR-5 = test system: OVCAR-5
MDA-MB-435 = test system: MDA-MB-435
UO-31 = test system: UO-31
MCF7 = test system: MCF7
NCI-H460 = test system: NCI-H460
HCT-116 = test system: HCT-116
NCI-H522 = test system: NCI-H522
U-251 = test system: U-251
CCRF-CEM = test system: CCRF-CEM
RPMI-8226 = test system: RPMI-8226
CAKI-1 = test system: CAKI-1
NCI-H226 = test system: NCI-H226
MOLT-4 = test system: MOLT-4
UACC-257 = test system: UACC-257
T47D = test system: T47D
HCC 2998 = test system: HCC 2998
HCT-15 = test system: HCT-15
IGROV-1 = test system: IGROV-1
Hs-578T = test system: Hs-578T
EKVX = test system: EKVX
HT-29 = test system: HT-29
SNB-75 = test system: SNB-75
K562 = test system: K562
HOP-92 = test system: HOP-92
RXF 393 = test system: RXF 393
SF-295 = test system: SF-295
TK-10 = test system: TK-10
SN12C = test system: SN12C
SK-MEL-2 = test system: SK-MEL-2
DU-145 = test system: DU-145
SF-539 = test system: SF-539
OVCAR-4 = test system: OVCAR-4
PC-3 = test system: PC-3
BT-549 = test system: BT-549
LOX IMVI = test system: LOX IMVI
A498 = test system: A498
HOP-62 = test system: HOP-62
MDA-N = test system: MDA-N
SK-MEL-28 = test system: SK-MEL-28
SK-MEL-5 = test system: SK-MEL-5
M14 = test system: M14
A549 = test system: A549
UACC-62 = test system: UACC-62

`NC(=O)C(=CNC(=S)Nc1ccc(S(=O)(=O)Nc2ccccn2)cc1)C(N)=O` was tested, and the GI50 (ACHN) was > 100 µM (inactive), the GI50 (KM12) was > 100 µM (inactive) and the GI50 (COLO 205) was > 100 µM (inactive). The GI50 (OVCAR-3) was > 100 µM (inactive), the GI50 (SW-620) was 39.3 µM (inactive) and the GI50 (SF-268) was > 100 µM (inactive). The GI50 (SR) was 41.5 µM (inactive), the GI50 (MDA-MB-231) was > 100 µM (inactive) and the GI50 (SK-OV-3) was > 100 µM (inactive). For the same compound, the GI50 (OVCAR-8) was > 100 µM (inactive), the GI50 (SNB-19) was > 100 µM (inactive) and the GI50 (786-0) was > 100 µM (inactive). For the same compound, the GI50 (NCI/ADR-RES) was 55.3 µM (inactive), the GI50 (NCI-H23) was > 100 µM (inactive) and the GI50 (OVCAR-5) was > 100 µM (inactive). For the same compound, the GI50 (MDA-MB-435) was > 100 µM (inactive), the GI50 (UO-31) was > 100 µM (inactive) and the GI50 (MCF7) was > 83.2 µM (inactive). For the same compound, the GI50 (NCI-H460) was > 100 µM (inactive), the GI50 (HCT-116) was 46.7 µM (inactive) and the GI50 (NCI-H522) was 50.5 µM (inactive). The GI50 (U-251) was > 100 µM (inactive), the GI50 (CCRF-CEM) was 30 µM (inactive) and the GI50 (RPMI-8226) was > 100 µM (inactive). For the same compound, the GI50 (CAKI-1) was > 100 µM (inactive), the GI50 (NCI-H226) was > 100 µM (inactive) and the GI50 (MOLT-4) was 1.52 µM (inactive). The GI50 (UACC-257) was > 100 µM (inactive), the GI50 (T47D) was > 100 µM (inactive) and the GI50 (HCC 2998) was > 10 µM (inactive). For the same compound, the GI50 (HCT-15) was over 78 µM, the GI50 (IGROV-1) was > 100 µM (inactive) and the GI50 (Hs-578T) was > 100 µM (inactive). For the same compound, the GI50 (EKVX) was > 100 µM (inactive), the GI50 (HT-29) was > 100 µM (inactive) and the GI50 (SNB-75) was > 100 µM (inactive). The GI50 (K562) was 40.6 µM (inactive), the GI50 (HOP-92) was > 100 µM (inactive) and the GI50 (RXF 393) was > 100 µM (inactive). The GI50 (SF-295) was > 100 µM (inactive), the GI50 (TK-10) was > 100 µM (inactive) and the GI50 (SN12C) was > 100 µM (inactive). For the same compound, the GI50 (SK-MEL-2) was > 100 µM (inactive), the GI50 (DU-145) was > 100 µM (inactive) and the GI50 (SF-539) was > 100 µM (inactive). For the same compound, the GI50 (OVCAR-4) was > 100 µM (inactive), the GI50 (PC-3) was > 100 µM (inactive) and the GI50 (BT-549) was > 100 µM (inactive). The GI50 (LOX IMVI) was > 93.1 µM (inactive), the GI50 (A498) was > 100 µM (inactive) and the GI50 (HOP-62) was > 100 µM (inactive). For the same compound, the GI50 (MDA-N) was > 93.8 µM (inactive), the GI50 (SK-MEL-28) was > 100 µM (inactive) and the GI50 (SK-MEL-5) was > 100 µM (inactive). The GI50 (M14) was > 100 µM (inactive), the GI50 (A549) was > 100 µM (inactive) and the GI50 (UACC-62) was > 100 µM (inactive).

In the case of `Oc1nc2c(c(-c3ccc(F)cc3)n1)COC/C2=C\c1ccc(F)cc1`, the GI50 (ACHN) is reported as > 100 µM (inactive), the GI50 (KM12) is reported as > 100 µM (inactive) and the GI50 (COLO 205) is reported as > 100 µM (inactive). For the same compound, the GI50 (OVCAR-3) was > 100 µM (inactive), the GI50 (SW-620) was > 100 µM (inactive) and the GI50 (SF-268) was > 100 µM (inactive). For the same compound, the GI50 (SR) was > 100 µM (inactive), the GI50 (MDA-MB-231) was > 100 µM (inactive) and the GI50 (SK-OV-3) was > 100 µM (inactive). The GI50 (OVCAR-8) was > 100 µM (inactive), the GI50 (SNB-19) was > 100 µM (inactive) and the GI50 (786-0) was > 100 µM (inactive). The GI50 (NCI/ADR-RES) was > 100 µM (inactive), the GI50 (NCI-H23) was > 100 µM (inactive) and the GI50 (OVCAR-5) was > 100 µM (inactive). The GI50 (MDA-MB-435) was > 100 µM (inactive), the GI50 (UO-31) was > 100 µM (inactive) and the GI50 (MCF7) was > 100 µM (inactive). For the same compound, the GI50 (NCI-H460) was > 100 µM (inactive), the GI50 (HCT-116) was > 100 µM (inactive) and the GI50 (NCI-H522) was > 100 µM (inactive). The GI50 (U-251) was > 100 µM (inactive), the GI50 (CCRF-CEM) was > 100 µM (inactive) and the GI50 (RPMI-8226) was > 100 µM (inactive). The GI50 (CAKI-1) was > 100 µM (inactive), the GI50 (NCI-H226) was > 100 µM (inactive) and the GI50 (MOLT-4) was > 100 µM (inactive). For the same compound, the GI50 (UACC-257) was > 100 µM (inactive), the GI50 (T47D) was > 100 µM (inactive) and the GI50 (HCC 2998) was > 100 µM (inactive). For the same compound, the GI50 (HCT-15) was over 100 µM, the GI50 (IGROV-1) was > 100 µM (inactive) and the GI50 (Hs-578T) was > 100 µM (inactive). For the same compound, the GI50 (EKVX) was > 100 µM (inactive), the GI50 (SNB-75) was > 100 µM (inactive) and the GI50 (K562) was > 100 µM (inactive). For the same compound, the GI50 (HOP-92) was > 100 µM (inactive), the GI50 (RXF 393) was > 100 µM (inactive) and the GI50 (SF-295) was > 100 µM (inactive). The GI50 (TK-10) was > 100 µM (inactive), the GI50 (SN12C) was > 100 µM (inactive) and the GI50 (SK-MEL-2) was > 100 µM (inactive). For the same compound, the GI50 (DU-145) was > 100 µM (inactive), the GI50 (SF-539) was > 100 µM (inactive) and the GI50 (OVCAR-4) was > 100 µM (inactive). For the same compound, the GI50 (PC-3) was > 100 µM (inactive), the GI50 (BT-549) was > 100 µM (inactive) and the GI50 (LOX IMVI) was > 100 µM (inactive). For the same compound, the GI50 (A498) was > 100 µM (inactive), the GI50 (HOP-62) was > 100 µM (inactive) and the GI50 (MDA-N) was > 100 µM (inactive). The GI50 (SK-MEL-5) was > 100 µM (inactive), the GI50 (M14) was > 100 µM (inactive) and the GI50 (UACC-62) was > 100 µM (inactive).
